From patent publication US20250066359A1, “SOMATOSTATIN RECEPTOR SUBTYPE 5 ANTAGONISTS, AND PHARMACEUTICAL COMPOSITION AND USE THEREOF” (SHANGHAI INSTITUTE OF MATERIA MEDICA, CHINESE ACADEMY OF …, priority 2021, published 2025) come the findings set out here.

For one assay, the system named is SSTR5. Description: Calcium flow response to the SSTR5 agonist (choice of agonist concentration). Particulars: CHO-Gα16 cells expressing SSTR5, cell line (h or m) not stated. Format: cell-based. The text has this: Testing SSTR5 antagonistic activity in vitro by Calcium flow detection method Experimental principle: After the receptor binds to the ligand and is activated, it can cause the activation of Gα16 protein, which further activates phospholipase C(PLC) to produce IP3 and DAG. IP3 can bind to the IP3 receptors on the endoplasmic reticulum and mitochondria in the cell, thereby causing the release of intracellular calcium. Therefore, measuring the changes in intracellular calcium can be used in the method to detect the activation state of hSSTR5. Fluo-4/AM is a calcium fluorescent probe indicator used to measure calcium ions. As a non-polar lipid-soluble compound, after it enters the cell, the AM group therein dissociates, and Fluo-4 is released under the action of cellular lipase; because Fluo-4 is a polar molecule and is not easy to pass through the lipid bilayer membrane, it can keep Fluo-4 in the cell fora longtime. Finally, the level of Ga protein activation can be reflected by measuring the intensity of the excited fluorescence. Somatostatin, an agonist of SSTR5, can activate SSTR5 receptors and greatly increase the calcium flow response. The SSTR5 antagonist to be tested can inhibit the agonist activity of the SSTR5 receptor and reduce the calcium increased flow response of the receptor stimulated by the agonist. […]

The next assay has as its target T1, hSSTR5 (Homo sapiens, UniProt P35346).
T1 construct: expressed in transfected cells; host or cells: CHO cells co-expressing Gα16 (hSSTR5-CHO-Gα16)
Description: SSTR5 antagonistic activity in vitro by calcium flow detection (hSSTR5-CHO-Gα16 cells). The class given is cell-based. Particulars: for IC50: hSSTR5-CHO-Gα16 cells, 100 nM Somatostatin-14 agonist, Fluo-4 fluorescence 525 nm; for SSTR5 antagonistic activity (in words): summary of Table 1. The text has this: (§1) Testing SSTR5 antagonistic activity in vitro by Calcium flow detection method Experimental principle: After the receptor binds to the ligand and is activated, it can cause the activation of Gα16 protein, which further activates phospholipase C(PLC) to produce IP3 and DAG. IP3 can bind to the IP3 receptors on the endoplasmic reticulum and mitochondria in the cell, thereby causing the release of intracellular calcium. Therefore, measuring the changes in intracellular calcium can be used in the method to detect the activation state of hSSTR5. Fluo-4/AM is a calcium fluorescent probe indicator used to measure calcium ions. As a non-polar lipid-soluble compound, after it enters the cell, the AM group therein dissociates, and Fluo-4 is released under the action of cellular lipase; because Fluo-4 is a polar molecule and is not easy to pass through the lipid bilayer membrane, it can keep Fluo-4 in the cell fora longtime. Finally, the level of Ga protein activation can be reflected by measuring the intensity of the excited fluorescence. Somatostatin, an agonist of SSTR5, can activate SSTR5 receptors and greatly increase the calcium flow response. The SSTR5 antagonist to be tested can inhibit the agonist activity of the SSTR5 receptor and reduce the calcium increased flow response of the receptor stimulated by the agonist.
(§2) • (1) The hSSTR5-CHO-Gα16 and mSSTR5-CHO-Gα16 cell lines stably expressing hSSTR5 or mSSTR5 receptors were seeded at a density of 30,000/well in a 96-well plate and cultured in a 37° C. incubator overnight. • (2) The cells was aspirated off the culture medium, added with freshly prepared dye at 40 μL/well, and incubated in a 37° C. incubator for 45 minutes. • (3) After the dye was aspirated and discarded, the cells were washed with freshly prepared calcium buffer and the culture medium was replaced with 50 μL of calcium buffer. • (4) The SSTR5 agonist Somatostatin-14 was diluted and mixed evenly with calcium buffer. • (5) Detection was performed using a Flextation instrument. Starting from the 15th second, 25 μL of the pre-prepared agonist was automatically added by the instrument, and the fluorescence value at 525 nm was read.

For another assay, the target named is T2, mSSTR5 (Mus musculus, UniProt O08858).
T2 construct: expressed in transfected cells; host or cells: CHO cells co-expressing Gα16 (mSSTR5-CHO-Gα16)
T2 sequence (O08858 1-362): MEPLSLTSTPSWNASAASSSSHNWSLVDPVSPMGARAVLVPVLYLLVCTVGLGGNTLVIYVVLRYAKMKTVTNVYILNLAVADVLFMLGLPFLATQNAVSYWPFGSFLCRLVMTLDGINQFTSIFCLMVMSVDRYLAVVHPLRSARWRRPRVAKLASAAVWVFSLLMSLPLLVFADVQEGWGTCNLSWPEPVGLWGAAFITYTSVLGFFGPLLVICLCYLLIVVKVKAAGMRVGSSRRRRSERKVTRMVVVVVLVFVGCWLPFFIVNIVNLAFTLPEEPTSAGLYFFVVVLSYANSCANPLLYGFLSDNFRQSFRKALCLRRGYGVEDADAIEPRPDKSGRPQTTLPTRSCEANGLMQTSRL
Description: SSTR5 antagonistic activity in vitro by calcium flow detection (mSSTR5-CHO-Gα16 cells). Particulars: 100 nM Somatostatin-14 agonist, Fluo-4 fluorescence 525 nm. Format: cell-based.
Excerpt: as §1, §2

The next assay relates to C57BL/6J mice. Description: Gallbladder emptying promotion experiment. Format: in vivo, mouse. Particulars: 30 mg/kg by gavage, egg yolk 1 h later, gallbladder removed after 15 min, versus control group, FIG. 2. The method, then: Experimental method: Before the experiment, 8-10 weeks old C57BL/6J mice were fasted for 17-18 hours and allowed to drink water freely. The mice were then divided into groups according to weight (n=4), and were gavaged with an aqueous solution of the compound prepared in Example 34 (30 mg/kg) or an equal volume of distilled water (control group), with a dosing volume of 10 mL/kg. At one hour after administration, 200 microliters of egg yolk were orally administered to the mice. After 15 minutes, the mice were killed by dislocation and dissected, and the gallbladder was removed and the bile was squeezed out and weighed with an analytical balance.

Broadly, the EC50 is the concentration needed to bring the measured effect to its halfway point. In general, IC50 refers to the concentration that gives 50% inhibition.

T1 sequence (P35346 whole entry): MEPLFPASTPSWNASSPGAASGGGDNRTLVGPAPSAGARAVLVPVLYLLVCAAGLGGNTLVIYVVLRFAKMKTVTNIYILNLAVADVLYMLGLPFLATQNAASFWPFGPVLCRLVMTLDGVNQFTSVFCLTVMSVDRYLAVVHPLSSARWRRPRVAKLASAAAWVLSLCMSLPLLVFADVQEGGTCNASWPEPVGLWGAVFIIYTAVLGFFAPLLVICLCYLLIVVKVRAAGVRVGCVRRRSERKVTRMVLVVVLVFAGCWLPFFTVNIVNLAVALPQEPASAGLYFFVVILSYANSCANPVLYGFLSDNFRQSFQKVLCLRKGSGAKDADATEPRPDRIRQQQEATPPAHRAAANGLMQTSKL

Somatostatin-14: the half-maximal effective concentration (EC50) in the assay on SSTR5 amounted to 9.7 nM.
As to `CCOc1cc(CN2CCN(C3CCN(S(=O)(=O)c4ccc(OC(F)(F)F)cc4)CC3)CC2)cc(OCC)c1-c1ccc(F)cc1` [Example 12, 1-((2,6-diethoxy-4′-fluoro-[1,1′-biphenyl]-4-yl)methyl)-4-(1-((4-(trifluoromethoxy)phenyl)sulfonyl)piperidin-4-yl)piperazine], on hSSTR5, the half-maximal inhibitory concentration (IC50) was 0.1 to 50 nM and the “SSTR5 antagonistic activity (in words)” value is “potent SSTR5 antagonistic activity”. In addition, the IC50 at mSSTR5 was 0.1 to 50 nM.
Turning to `CCOc1cc(CN2CCC3(CC2)CN(c2ccc(C(=O)O)cc2)C3)cc(OCC)c1-c1ccc(F)cc1` [Example 10, 4-(7-((2,6-diethoxy-4′-fluoro-[1,1′-biphenyl]-4-yl)methyl)-2,7-diazaspiro[3.5]nonan-2-yl)benzoic acid], on hSSTR5, the 50% inhibitory concentration (IC50) lay within 0.1 to 50 nM and the “SSTR5 antagonistic activity (in words)” value is listed as “potent SSTR5 antagonistic activity”. Also, the concentration for half-maximal inhibition (IC50) on mSSTR5 fell in the range of 0.1 to 50 nM.
Consider `CCOc1cc(CN2CCC3(CC2)CN(c2ccc(C(=O)O)c(F)c2)C3)c(C2CC2)cc1C` [Example 34, 4-(7-(2-cyclopropyl-5-ethoxy-4-methylbenzyl)-2,7-diazaspiro[3.5]nonan-2-yl)-2-fluorobenzoic acid], for which the “emptying of the mouse gallbladder (bile weight)” value with C57BL/6J mice was “significantly promote the emptying of the mouse gallbladder”.
For the compound `CCOc1cc(CN2CCC3(CC2)CN(c2ccc(C(=O)O)c(OC)c2)C3)cc(OCC)c1-c1ccc(F)cc1` [Example 28, 4-(7-((2,6-diethoxy-4′-fluoro-[1,1′-biphenyl]-4-yl)methyl)-2,7-diazaspiro[3.5]nonan-2-yl)-2-methoxybenzoic acid], on hSSTR5, the half-maximal inhibitory concentration (IC50) lay in the range of 0.1 to 50 nM and the “SSTR5 antagonistic activity (in words)” value is reported as “potent SSTR5 antagonistic activity”. In addition, the IC50 at mSSTR5 lay within 0.1 to 50 nM.
For the compound `CCOc1cc(CN2CCC3(CC2)CN(c2ccc(C(=O)O)cc2F)C3)cc(OCC)c1-c1ccc(F)cc1` [Example 27, 4-(7-((2,6-diethoxy-4′-fluoro-[1,1′-biphenyl]-4-yl)methyl)-2,7-diazaspiro[3.5]nonan-2-yl)-3-fluorobenzoic acid], at hSSTR5, the IC50 was 0.1 to 50 nM and the “SSTR5 antagonistic activity (in words)” value was “potent SSTR5 antagonistic activity”. Also, at mSSTR5, the IC50 fell in the range of 0.1 to 50 nM.
